Test results published in the NIST ThermoML archive (doi:10.1016/j.jct.2013.06.009).
Numbers after ± are expanded uncertainties.

Key:
[1] = wn = mass fraction of the nth substance listed; details: 101.33 kPa, Liquid, w1 = 0.009; for viscosity: Capillary tube (Ostwald / Ubbelohde) method; for mass density: Vibrating tube method
[2] = 101.33 kPa, Liquid; for viscosity: Capillary tube (Ostwald / Ubbelohde) method; for mass density: Vibrating tube method
[3] = mn = molality of the nth substance listed, in mol/kg; details: 101.33 kPa, Liquid, m2 = 0; for viscosity: Capillary tube (Ostwald / Ubbelohde) method; for mass density: Vibrating tube method

[Cl-].[Na+] [sodium chloride] + O
[1]
Details | mass density [kg/m3] | viscosity [mPa·s]
278.15 K | 1006.09 ± 0.21 | 1.53 ± 0.032
283.15 K | 1005.64 ± 0.21 | 1.321 ± 0.028
288.15 K | 1005.07 ± 0.21 | 1.154 ± 0.024
293.15 K | 1004.14 ± 0.21 | 1.015 ± 0.021
298.15 K | 1002.96 ± 0.21 | 0.9068 ± 0.019
303.15 K | 1001.47 ± 0.21 | 0.8105 ± 0.017
308.15 K | 999.75 ± 0.21 | 0.7363 ± 0.015
313.15 K | 997.82 ± 0.21 | 0.6641 ± 0.014

O [water]
[2]
Details | mass density [kg/m3] | viscosity [mPa·s]
278.15 K | 999.96 ± 0.2 | 1.521 ± 0.032
283.15 K | 999.7 ± 0.2 | 1.307 ± 0.027
288.15 K | – | 1.135 ± 0.024
293.15 K | – | 1.002 ± 0.021
298.15 K | – | 0.8903 ± 0.019
303.15 K | – | 0.7977 ± 0.017
308.15 K | – | 0.719 ± 0.015
313.15 K | – | 0.6532 ± 0.014

O [water] + CO/N=C(\C(=O)N[C@@H]1C(=O)N2C(C(=O)O)=C(C[N+]3(C)CCCC3)CS[C@H]12)c1csc(N)n1.Cl.[Cl-]
[3]
Details | mass density [kg/m3] | viscosity [mPa·s]
278.15 K | 999.96 ± 0.21 | 1.521 ± 0.032
283.15 K | 999.7 ± 0.21 | 1.307 ± 0.027
288.15 K | – | 1.135 ± 0.024
293.15 K | – | 1.002 ± 0.021
298.15 K | – | 0.8903 ± 0.019
303.15 K | – | 0.7977 ± 0.017
308.15 K | – | 0.719 ± 0.015
313.15 K | – | 0.6532 ± 0.014
